Laboratory results taken from US20100068692A1, “ANTIFREEZE GLYCOPROTEIN ANALOGUES AND USES THEREOF” (UNIVERSITY OF OTTAWA, priority 2008, published 2010).
Entries after “also recorded” stand apart in the source; their conditions may differ. Blank lines part the entries; values can stand above or below the compound they belong to.

What was measured:
[1] = isentropic, value x10^4, aqueous solution at 298 K; cited from earlier work
[2] = Recrystallization inhibition (RI) assay, mean largest grain size (Experiment 1); conditions: carbohydrate concentration corrected to 0.021 mmole/L (FIG. 3)
Experimental: All measurements were performed in triplicate. The Y-axis depicts the mean largest grain size (MLGS in mm^2) of ice crystals measured directly from photographs of the sample, as described previously (Raymond, J. A. D., A. L., Proc. Natl. Acad. Sci. USA 1977, 74, 2589).
All samples were compared to a solution of phosphate buffered saline (PBS) which was used as a negative control and a solution of AFGP 8 isolated from Gagus ogac (generously provided by AquaBounty Farms). Each solution was tested at three different concentrations in order to rule out any non-specific RI effects. The Y-axis in FIG. 5 represents mean largest grain size (MLGS) where small bars are representative of potent recrystallization-inhibition activity.
The Y-axis in FIG. 7 represents the mean largest grain size (MLGS) which is an average ice crystal surface area for each sample.

[3] = RI assay, splat cooling with domain recognition software (Experiment 2)
Experimental: Sample analysis for RI activity was performed using the “splat cooling” method as described previously (Knight, C. A.; Hallet, J.; DeVries, A. L. Cryobiology, 1998, 25, 55). In this method, the analyte is dissolved in phosphate buffered saline (PBS) solution and a 10 μL drop of this solution is dropped from a micropipette through a two metre high plastic tube (10 cm in diameter) onto a block of polished aluminum pre-cooled to approximately −80° C. The droplet freezes instantly on the polished aluminum block and is approximately 1 cm in diameter and 20 μm thick. This wafer is then carefully removed from the surface of the block and transferred to a cryostage held at −6.4° C. for annealing. After a period of 30 minutes, the wafer was photographed between crossed polarizing filters using a digital camera (Nikon CoolPix 5000) fitted to the microscope. A total of three images are taken from each wafer. During flash freezing, ice crystals spontaneously nucleate from the super-cooled solution. These initial crystals are relatively homogenous in size and quite small. During the annealing cycle recrystallization occurs, resulting in a dramatic increase in ice crystal size. A quantitative measure of the difference in recrystallization inhibition of two compounds X and Y is the difference in the dynamics of the ice crystal size distribution. […] This processing employed of the Microsoft Windows Graphical User Interface to allow a user to visually demarcate and store the vertices of ice domains in a digital micrograph. […] To eliminate the need to fully process each micrograph, an algorithm was developed to randomly display a number of x/y locations. The algorithm made use of a built-in pseudo random number generator (rand(x)) and was written so that no two locations were closer than 1/10th the field of view of the micrograph. The formula for the area of a polygon that is not self-intersecting and contains no holes is then given by Eq.2,
where N is the number of vertices, and x0, y0 to xN−1, yN−1 are the vertices circumventing the polygon in a clockwise direction. The point x0, y0 is assumed to be equivalent to the point xN, yN. The software was written in C using Microsoft Visual Studio 6.0 on a Pentium class personal computer running Microsoft Windows 2000 or XP. All data was plotted and analyzed using Microsoft Excel.

[4] = Nanolitre osmometry of carbohydrate solutions (Experiment 2); conditions: 10 mg/mL solutions in double-distilled water
Experimental: Nanoliter osmometry was performed using a nanoliter osmometer (Clifton Technical Physics, Hartford, N.Y.) as described by Chakrabartty and Hew (Chakrabartty, A.; Hew, C. L. Eur. J. Biochem. 1991, 202, 1057-1063). All measurements were made in doubly distilled water. Ice crystal morphology was observed through a Leitz compound microscope equipped with an Olympus 20× (infinity corrected) objective, Leitz Periplan 32× photo eyepiece and a Hitachi KP-M2U CCD camera connected to a Toshiba MV13K1 TV/VCR system. Still images were captured directly using a Nikon CoolPix digital camera.
It has been proposed that the optimal distance between hydroxyl groups is 4.2-4.5 Angstroms (Baruch, E.; Belostotskii, A. M.; Mastai, Y. J. Mol. Struct. 2008, 874, 170).

[5] = Thermal hysteresis (TH), microcapilliary method
[6] = Nanoliter osmometer: thermal hysteresis and dynamic ice shaping (Experiment 1); conditions: without antifreeze the crystal is perfectly round, 'Identical images' refers to that, 13: 0.0033 mmole/L in doubly distilled water
Experimental: FIG. 4 (A) depicts a single ice crystal in the absence of biological antifreeze. Notice that the crystal is perfectly round and has no facets or edges.
AFGP analogues 18a-c were assayed for antifreeze protein-specific activity using nanoliter osmometry and a recrystallization-inhibition assay.

Compound: OCC1O[C@H](O[C@@H]2C(CO)O[C@@H](O)C(O)C2O)C(O)C(O)[C@@H]1O (stereo partly shown)
Molar Compressibility (K2°(s)x10^4) [1]: −23.7 cm^3 mol^−1 bar^−1

Compound: N[C@@H](CCCCNC(=O)C[C@H]1OC(CO)[C@H](O)[C@H](O)C1O)C(=O)NCC(=O)NCC(=O)O (stereo partly shown) [Compound 10]
RI activity relative to PBS (in words) [2]: do not show any RI activity

Melting Point [4]: −0.069 °C
Compound: OCC1O[C@@H](O)C(O)[C@@H](O)[C@H]1O (stereo partly drawn) [D-galactose]
RI activity (in words) ([3]; 0.022 M in PBS solution): inhibit recrystallization as well as a 3% DMSO solution
RI activity (in words) ([3]; 0.022 M in PBS solution, listed as galactose): as efficient at inhibiting recrystallization as a 3% (v/v) DMSO solution; also recorded: possesses the most RI activity
RI activity (in words) ([3]; 0.044 M solution in PBS): RI activity similar to that of a 0.022 M solution
RI activity (in words) ([3]; 0.22 M solution in PBS): effective inhibitor of recrystallization

Melting Point [4]: −0.055 °C
Compound: OCC1O[C@@H](O)C(O)[C@@H](O)[C@@H]1O (stereo partly drawn) [D-glucose]
Molar Compressibility (K2°(s)x10^4) [1]: −17.6 cm^3 mol^−1 bar^−1

Melting Point [4]: −0.015 °C
Compound: OCC1O[C@H](O[C@H]2OC(CO)[C@@H](O)C(O)C2O)C(O)C(O)[C@@H]1O (stereo partly drawn) [D-trehalose]

Compound: C[S+](C)[O-] [DMSO, dimethylsulfoxide]
RI activity (in words) ([3]; 0.1% (v/v) solution in PBS): failed to inhibit recrystallization
RI activity (in words) ([3]; 4% (v/v) solution in PBS): produced a significant RI effect

Compound: OCC1O[C@H](O[C@H]2OC(CO)[C@@H](O)C(O)C2O)C(O)C(O)[C@@H]1O (stereo partly shown) [drawing 28]
Molar Compressibility (K2°(s)x10^4) [1]: −30.2 cm^3 mol^−1 bar^−1

Compound: OCC(O)CO [glycerol]
temperature below the melting point at which rapid crystal growth occurred / solution freezes [5]: −0.01 °C

Melting Point [4]: −0.17 °C
Compound: OCC1O[C@H](OCC2O[C@@H](O)C(O)C(O)[C@@H]2O)C(O)C(O)[C@H]1O (stereo partly shown) [melibiose]
Molar Compressibility (K2°(s)x10^4) [1]: −31.2 cm^3 mol^−1 bar^−1
RI activity (in words) ([3]; 0.022 M in PBS solution): is the most potent

Compound: [Cl-].[Na+] [salt, sodium chloride]
single ice crystal morphology [6]: Identical images
temperature below the melting point at which rapid crystal growth occurred / solution freezes [5]: −0.01 °C

Compound: OC[C@H]1O[C@@](CO)(O[C@H]2O[C@H](CO)[C@@H](O)[C@H](O)[C@H]2O)[C@@H](O)[C@@H]1O [sucrose]
RI activity (in words) ([3]; 0.022 M in PBS solution): little effect upon recrystallization

Compound: OCC1O[C@@H](O)C(O)[C@@H](O)[C@H]1O (stereo partly shown) [talose]
Molar Compressibility (K2°(s)x10^4) [1]: −11.9 cm^3 mol^−1 bar^−1

Compound: (L-lysine-glycine-glycine)-6-glycine [peptide control]
RI activity relative to PBS (in words) [2]: did not inhibit the growth of ice
